Measurements as given in PubChem BioAssay (NCI).
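Results reflect a 48-hour exposure of cells in 96-well plates to compound at five concentrations. GI50 = concentration required for 50% inhibition of growth. TGI: total growth inhibition.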

Tests used:
Test in all cases: NCI tumour cell line growth inhibition, 48 h
BT-549 breast = test system: BT-549 breast
T-47D breast = test system: T-47D breast
HOP-18 NSCLC = test system: HOP-18 NSCLC
LXFL 529 NSCLC = test system: LXFL 529 NSCLC
DLD-1 colon = test system: DLD-1 colon
KM20L2 colon = test system: KM20L2 colon
MDA-N = test system: MDA-N
M19-MEL melanoma = test system: M19-MEL melanoma
RXF-631 renal = test system: RXF-631 renal

| SMILES | GI50 (BT-549 breast) | TGI (BT-549 breast) | GI50 (T-47D breast) | TGI (T-47D breast) | further results |
| --- | --- | --- | --- | --- | --- |
| CC(C)(C)NC/C(=C\c1ccccc1)C(=O)c1ccccc1 | 2030 nM | 4.39 µM | 2190 nM | 8.98 µM |  |
| O=S(=O)(Nc1ccc2ccccc2c1)c1ccc(-c2cnc(C3CC3)o2)cc1 | 2810 nM | 19.3 µM | 1010 nM | 58.3 µM |  |
| O=C(Cn1c(C(=O)c2ccccc2)nc2ccccc21)c1ccc(F)cc1 | 9760 nM | > 100 µM | 3380 nM | > 100 µM |  |
| CC(=O)O/N=C(Cl)/C(Cl)=N/OC(C)=O |  |  |  |  | TGI (HOP-18 NSCLC): > 100 µM; TGI (LXFL 529 NSCLC): > 100 µM; TGI (DLD-1 colon): > 100 µM; TGI (KM20L2 colon): > 100 µM |
| Nc1nc(N)c(N=Nc2ccc(C(=O)O)c(O)c2)c(N)n1 |  | > 100 µM |  |  | TGI (MDA-N): > 100 µM |
| COC(=O)C1=C(O)[C@H](C(=O)OC)[C@]2(O)[C@@H](C(=O)OC)[C@H]1C[C@@H](c1ccc(OC(=O)/C=C/c3ccco3)cc1)[C@@H]2C(=O)OC | 22500 nM | 49.4 µM | > 100000 nM | > 100 µM |  |
| COc1cc2c(cc1OC)c1c(OC)c(OC)cc3c1c1c2sc(=S)n1CC3 |  |  |  |  | TGI (HOP-18 NSCLC): > 100 µM; TGI (LXFL 529 NSCLC): > 100 µM; TGI (DLD-1 colon): > 100 µM; TGI (KM20L2 colon): > 100 µM; TGI (M19-MEL melanoma): > 100 µM |
| CCN(CC)CC(C)(C)C(=O)/C=C/c1ccc(/C=C/C(=O)C(C)(C)CN(CC)CC)cc1 |  |  |  | 3.21 µM | TGI (LXFL 529 NSCLC): 0.417 µM; TGI (DLD-1 colon): 1.26 µM; TGI (KM20L2 colon): 2.51 µM; TGI (MDA-N): 1.66 µM; TGI (M19-MEL melanoma): 4.23 µM |
| CC1CC(C)C2=NOS3=C2C1=NO3 (stereo unspecified) |  |  |  | > 100 µM | TGI (MDA-N): > 100 µM |
| Cc1nnc(-c2ccc(C)c(-c3ccc(C(=O)NCc4ccc(Cl)cc4)cc3)c2)o1 | 14700 nM | > 25 µM | 4130 nM | > 19.2 µM |  |
| CCCCCCN(C)Cc1ccc(OCCOc2ccc(CN(C)CCCCCC)cc2)cc1 | 1470 nM | 3.01 µM | 1320 nM | 3.26 µM |  |
| C[C@@H]1CC[C@@H]2[C@@H](C)C[C@H]3[C@@H]4C(C)(C)OC(=O)[C@]4(C)C(=O)[C@@]23C1=O |  | > 100 µM | 65300 nM | > 100 µM |  |
| CCOc1c(C#N)c2c(N)ncnc2n1C1OC(CO)C(O)C1O (stereo unspecified) | 2580 nM | 19 µM | 1980 nM | 20.2 µM |  |
| COc1ccc(NC(=O)CCc2cc(C(C)(C)C)n[nH]2)cc1 |  |  |  |  | TGI (HOP-18 NSCLC): > 100 µM; TGI (LXFL 529 NSCLC): > 100 µM; TGI (RXF-631 renal): > 100 µM; TGI (KM20L2 colon): > 100 µM; TGI (M19-MEL melanoma): > 100 µM |
| Cc1cc(C)nc(NS(=O)(=O)c2ccc(NC(=O)c3ccc(Cl)c4c(Nc5ccc(S(=O)(=O)N=C(N)N)cc5)c5ccccc5nc34)cc2)n1 |  |  |  |  | TGI (HOP-18 NSCLC): > 100 µM; TGI (LXFL 529 NSCLC): > 100 µM; TGI (KM20L2 colon): > 100 µM |
| O=C(Nc1cccnc1)c1ccc2ccc3ccc(C(=O)Nc4cccnc4)nc3c2n1 |  |  | 257 nM | > 100 µM |  |
| COc1cc(-c2ccc(NC(=O)NC3CC3)c(OC)c2)ccc1NC(=O)NC1CC1 | 2670 nM | 27.2 µM | > 100000 nM | > 100 µM |  |
| Cc1ccc(/C=C(\C#N)c2ccccc2)cc1 |  |  |  |  | TGI (HOP-18 NSCLC): > 100 µM; TGI (LXFL 529 NSCLC): > 100 µM; TGI (DLD-1 colon): > 100 µM; TGI (KM20L2 colon): > 100 µM; TGI (M19-MEL melanoma): > 100 µM |

| SMILES | GI50 (BT-549 breast) | TGI (BT-549 breast) | GI50 (T-47D breast) | TGI (T-47D breast) | further results |
| --- | --- | --- | --- | --- | --- |
| Cc1nc(Nc2ccccc2)sc1C(=O)CC(=O)C(=O)NC12CC3CC(CC(C3)C1)C2 |  |  |  |  | TGI (HOP-18 NSCLC): > 100 µM; TGI (LXFL 529 NSCLC): > 100 µM; TGI (DLD-1 colon): > 100 µM; TGI (KM20L2 colon): > 100 µM; TGI (M19-MEL melanoma): > 100 µM |
| COc1ccc2c(c1)N(CCO)C1=C(C(=O)OC1)C2c1ccccc1 (stereo unspecified) | 4030 nM | > 50 µM |  |  |  |
| CCCCCCCCCCCCCC(=O)OCC1OC(n2cc(F)c(=O)[nH]c2=O)C(N)C(OC(=O)CCCCCCCCCCCCC)C1O (stereo unspecified) |  |  |  |  | TGI (LXFL 529 NSCLC): > 100 µM; TGI (KM20L2 colon): > 100 µM; TGI (M19-MEL melanoma): > 100 µM |
| O=C(NN1C(=O)CSC12CCCC2)C(O)c1ccccc1 (stereo unspecified) | > 100000 nM | > 100 µM | > 100000 nM | > 100 µM |  |
| C1CCN2CC3CCCN4CCCC(C2C1)C34 (stereo unspecified) |  | > 100 µM |  | > 100 µM | TGI (MDA-N): > 100 µM |
| NNC(=S)Nc1cccc(Cl)c1 |  | > 100 µM |  | > 100 µM | TGI (MDA-N): > 100 µM |
| CC(C)(C)c1ccc(O)c(CN(Cc2cc(C(C)(C)C)ccc2O)C2CCCCC2)c1 |  | 46.5 µM |  | 45 µM | TGI (MDA-N): 28.1 µM |
| CN1CCN(Cc2ccc(NC(=O)c3cncc(C#Cc4cnn5ccccc45)c3)cc2C(F)(F)F)CC1 | 1470 nM | 4.11 µM | 1400 nM | 5.78 µM |  |
| COc1cc2ncn(-c3cc(OCc4ccccc4C(F)(F)F)c(C(C)=O)s3)c2cc1OC | > 25000 nM | > 25 µM | > 25000 nM | > 25 µM |  |
| N#Cc1c(N)nc(N2CCSCC2)c(C#N)c1-c1ccc(O)cc1 | 23300 nM | 98 µM | 12800 nM | 85.8 µM |  |
| O=C(Nc1cccc(Cl)c1)c1cc(N=Nc2ccc([N+](=O)[O-])cc2Cl)ccc1O | 2350 nM | 7.31 µM | 1620 nM | 5.57 µM |  |
| CC(=O)C1CCC2C3CC=C4CC(SC(=N)N)CCC4(C)C3CCC12C (stereo unspecified) |  |  | 2020 nM | 4.85 µM |  |
| CC(C)CCC(=O)[C@@H](C)[C@H]1[C@@H](OC2OCC(O)C(O)C2NS(C)(=O)=O)C[C@H]2[C@@H]3CC=C4C[C@@H](O)CC[C@]4(C)[C@H]3CC[C@]12C (stereo partly specified) | 245 nM | 4.93 µM | 3930 nM | 23 µM |  |
| CC[C@]12C=CCN3CC[C@@]4(c5ccc(OC)cc5N(C)[C@H]4[C@@](O)(C(=O)OC)[C@@H]1OC(=O)CCC(=O)N[C@H](Cc1c[nH]c4ccccc14)C(=O)OC)[C@@H]32 | 7680 nM | 41 µM | 11000 nM | 30.3 µM |  |
| CO[C@@H]1[C@H]2[C@@H](C)c3ccoc3C[C@@H]2[C@@]2(C)CC[C@H](OC(=O)c3ccccc3)[C@](C)(C(=O)O)[C@]2(O)[C@@H]1OC(=O)c1ccccc1 | 8990 nM | 29.7 µM |  |  |  |
| CCOC(=O)c1csc(NC(=O)COc2cccc(/C=C3\CSc4ccccc4C3=O)c2)n1 | 2290 nM | 6.22 µM | 6790 nM | 26.7 µM |  |
| CCc1nc2cc(/C=C/C(=O)NO)ccc2c(=O)n1CCc1ccc(F)cc1 | 2840 nM | 9.14 µM | 629 nM | 6.23 µM |  |
| CC(=O)NC(CCCCN(Cc1ccccc1)C(=O)N(CCCl)N=O)C(=O)NCc1ccccc1 (stereo unspecified) |  | 65.8 µM |  | 36.7 µM | TGI (HOP-18 NSCLC): 87.5 µM; TGI (LXFL 529 NSCLC): > 100 µM; TGI (DLD-1 colon): > 79 µM; TGI (KM20L2 colon): > 69.5 µM; TGI (MDA-N): 36.3 µM; TGI (M19-MEL melanoma): > 100 µM |
